Calls of active or inactive are those of the source. No cut-off for these calls is given here.
Assays:
[1] = test system: Bombyx mori; experiment: Induction of precocious metamorphosis in allatectomized fourth-instar larvae of Bombyx mori Shunei x Shougetsu assessed as juvenile hormone activity at 10 to 40 ug applied topically to dorsal abdomen of larvae; type: functional, organism-based
[2] = test system: Bombyx mori; experiment: Induction of precocious metamorphosis in allatectomized fourth-instar larvae of Bombyx mori Shunei x Shougetsu assessed as juvenile hormone activity at 1 ug applied topically to dorsal abdomen of larvae; type: functional, organism-based

Row | Structure (SMILES) | Activity [1] | Activity [2]
1 | CCCCC(COc1ccc(C(=O)OCC)cc1)Oc1ccccc1 (stereo unspecified) | Active | inactive
2 | CCOC(=O)c1ccc(OCC(CC)OC(=O)C(C)(C)C)cc1 (stereo unspecified) |  | Active
3 | COC(C)(C)CCC[C@H](C)C/C=C/C(C)=C/C(=O)OC(C)C |  | Active
4 | CCCCC(COc1ccc(C(=O)OCC)cc1)Oc1ccc(C)nc1 (stereo unspecified) | Active | inactive
